Test results: PMC2902587 (International journal of pharmaceutics, 2010)
Converted amounts (≈) assume the structure as drawn.

Assays:
[1] = target: T1, MRP2 (Homo sapiens, UniProt Q92887); assay: [14C] erythromycin uptake in MDCK-MRP2 cells; format: cell-based
[2] = target: T2, P-gp (human MDR1) (Homo sapiens, UniProt P08183); assay: [14C] erythromycin uptake in MDCKII-MDR1 cells; format: cell-based
[3] = target: T1, MRP2; assay: Bidirectional [14C] erythromycin transport across MDCK-MRP2 cell monolayers; format: cell-based
[4] = target: T3, BCRP (Homo sapiens, UniProt Q9UNQ0); assay: Accumulation of Hoechst 33342 in MDCK-BCRP cells; format: cell-based; details: gatifloxacin 0.5, 1, 2.5, 5 and 10 mM, Hoechst 33342 5μM
T3 sequence (Q9UNQ0 1-655): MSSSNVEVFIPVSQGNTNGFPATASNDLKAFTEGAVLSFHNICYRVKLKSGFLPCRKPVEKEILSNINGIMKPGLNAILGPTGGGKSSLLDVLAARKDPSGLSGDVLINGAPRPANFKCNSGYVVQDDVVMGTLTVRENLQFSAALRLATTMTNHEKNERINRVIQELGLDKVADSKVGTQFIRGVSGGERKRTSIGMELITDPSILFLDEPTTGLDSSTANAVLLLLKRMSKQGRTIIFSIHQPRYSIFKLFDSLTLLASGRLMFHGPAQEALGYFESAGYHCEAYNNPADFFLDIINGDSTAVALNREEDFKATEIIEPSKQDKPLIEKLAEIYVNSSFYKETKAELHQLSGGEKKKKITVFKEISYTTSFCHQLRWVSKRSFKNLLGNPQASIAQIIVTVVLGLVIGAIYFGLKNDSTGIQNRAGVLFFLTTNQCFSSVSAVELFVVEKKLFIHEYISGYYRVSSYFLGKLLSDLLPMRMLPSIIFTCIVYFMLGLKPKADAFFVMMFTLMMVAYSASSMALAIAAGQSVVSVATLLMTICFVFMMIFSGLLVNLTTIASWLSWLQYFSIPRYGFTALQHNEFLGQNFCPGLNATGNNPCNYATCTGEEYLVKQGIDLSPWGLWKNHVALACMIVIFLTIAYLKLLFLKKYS

[5] = tested on: MDCKII-MDR1, MDCK-MRP2 and MDCK-BCRP cells; assay: ATP activity assay in MDCK cell lines; format: cell-based, dog; details: all MDCK cell lines, 30 min treatment, 0.75, 1.25, 2.5 and 5mM
[6] = target: T2, P-gp (human MDR1); details: MDCKII-MDR1 monolayers
[7] = tested on: many bacterial species; details: cited from earlier work
[8] = tested on: P-gp; details: rat endothelial cell line (RBMEC); ref Li et al. 2009; cited from earlier work
[9] = tested on: MRP2; assay: Bidirectional [14C] erythromycin transport across MDCK-MRP2 cell monolayers; format: cell-based, human; details: human, pH 7.4
[10] = target: T2, P-gp (human MDR1); assay: in vitro; details: MDCK-MDR1, pH 7.4

T1 sequence (Q92887 whole entry): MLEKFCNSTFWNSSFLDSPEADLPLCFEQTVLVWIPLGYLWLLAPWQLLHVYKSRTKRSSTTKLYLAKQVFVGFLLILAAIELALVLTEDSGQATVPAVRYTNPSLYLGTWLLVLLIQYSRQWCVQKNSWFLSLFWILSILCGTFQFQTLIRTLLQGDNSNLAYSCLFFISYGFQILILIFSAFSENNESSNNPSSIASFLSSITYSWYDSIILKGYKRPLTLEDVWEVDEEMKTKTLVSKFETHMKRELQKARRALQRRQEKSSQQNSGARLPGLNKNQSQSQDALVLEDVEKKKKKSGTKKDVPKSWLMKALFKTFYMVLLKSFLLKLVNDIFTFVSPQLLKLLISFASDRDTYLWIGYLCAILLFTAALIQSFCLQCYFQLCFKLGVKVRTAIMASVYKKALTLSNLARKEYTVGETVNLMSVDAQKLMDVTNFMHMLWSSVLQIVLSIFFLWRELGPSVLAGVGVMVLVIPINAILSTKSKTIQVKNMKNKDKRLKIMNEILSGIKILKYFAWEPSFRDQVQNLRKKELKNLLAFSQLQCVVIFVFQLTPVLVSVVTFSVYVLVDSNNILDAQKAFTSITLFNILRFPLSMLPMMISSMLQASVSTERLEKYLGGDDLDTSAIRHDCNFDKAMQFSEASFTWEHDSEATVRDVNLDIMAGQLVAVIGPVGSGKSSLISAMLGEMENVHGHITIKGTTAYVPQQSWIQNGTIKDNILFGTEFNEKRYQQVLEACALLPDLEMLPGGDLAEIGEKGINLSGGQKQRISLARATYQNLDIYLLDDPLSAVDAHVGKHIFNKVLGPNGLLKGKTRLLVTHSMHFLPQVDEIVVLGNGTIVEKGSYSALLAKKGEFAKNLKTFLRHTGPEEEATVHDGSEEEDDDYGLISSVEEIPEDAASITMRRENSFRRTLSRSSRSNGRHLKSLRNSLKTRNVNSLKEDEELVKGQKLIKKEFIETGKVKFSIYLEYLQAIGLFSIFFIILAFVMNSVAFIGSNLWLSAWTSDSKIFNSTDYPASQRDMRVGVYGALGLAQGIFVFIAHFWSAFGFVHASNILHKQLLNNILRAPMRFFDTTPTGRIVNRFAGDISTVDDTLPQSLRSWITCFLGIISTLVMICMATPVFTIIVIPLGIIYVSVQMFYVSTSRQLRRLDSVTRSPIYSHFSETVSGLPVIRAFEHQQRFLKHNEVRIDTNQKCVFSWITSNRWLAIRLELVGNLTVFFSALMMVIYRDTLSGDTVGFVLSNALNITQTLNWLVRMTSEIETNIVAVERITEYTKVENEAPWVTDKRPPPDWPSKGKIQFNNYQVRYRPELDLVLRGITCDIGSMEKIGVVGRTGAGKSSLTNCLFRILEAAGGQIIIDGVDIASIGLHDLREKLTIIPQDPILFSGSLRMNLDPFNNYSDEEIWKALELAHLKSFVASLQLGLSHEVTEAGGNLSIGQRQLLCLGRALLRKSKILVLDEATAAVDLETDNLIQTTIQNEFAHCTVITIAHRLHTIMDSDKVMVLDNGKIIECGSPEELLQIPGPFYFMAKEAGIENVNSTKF
T2 sequence (P08183 whole entry): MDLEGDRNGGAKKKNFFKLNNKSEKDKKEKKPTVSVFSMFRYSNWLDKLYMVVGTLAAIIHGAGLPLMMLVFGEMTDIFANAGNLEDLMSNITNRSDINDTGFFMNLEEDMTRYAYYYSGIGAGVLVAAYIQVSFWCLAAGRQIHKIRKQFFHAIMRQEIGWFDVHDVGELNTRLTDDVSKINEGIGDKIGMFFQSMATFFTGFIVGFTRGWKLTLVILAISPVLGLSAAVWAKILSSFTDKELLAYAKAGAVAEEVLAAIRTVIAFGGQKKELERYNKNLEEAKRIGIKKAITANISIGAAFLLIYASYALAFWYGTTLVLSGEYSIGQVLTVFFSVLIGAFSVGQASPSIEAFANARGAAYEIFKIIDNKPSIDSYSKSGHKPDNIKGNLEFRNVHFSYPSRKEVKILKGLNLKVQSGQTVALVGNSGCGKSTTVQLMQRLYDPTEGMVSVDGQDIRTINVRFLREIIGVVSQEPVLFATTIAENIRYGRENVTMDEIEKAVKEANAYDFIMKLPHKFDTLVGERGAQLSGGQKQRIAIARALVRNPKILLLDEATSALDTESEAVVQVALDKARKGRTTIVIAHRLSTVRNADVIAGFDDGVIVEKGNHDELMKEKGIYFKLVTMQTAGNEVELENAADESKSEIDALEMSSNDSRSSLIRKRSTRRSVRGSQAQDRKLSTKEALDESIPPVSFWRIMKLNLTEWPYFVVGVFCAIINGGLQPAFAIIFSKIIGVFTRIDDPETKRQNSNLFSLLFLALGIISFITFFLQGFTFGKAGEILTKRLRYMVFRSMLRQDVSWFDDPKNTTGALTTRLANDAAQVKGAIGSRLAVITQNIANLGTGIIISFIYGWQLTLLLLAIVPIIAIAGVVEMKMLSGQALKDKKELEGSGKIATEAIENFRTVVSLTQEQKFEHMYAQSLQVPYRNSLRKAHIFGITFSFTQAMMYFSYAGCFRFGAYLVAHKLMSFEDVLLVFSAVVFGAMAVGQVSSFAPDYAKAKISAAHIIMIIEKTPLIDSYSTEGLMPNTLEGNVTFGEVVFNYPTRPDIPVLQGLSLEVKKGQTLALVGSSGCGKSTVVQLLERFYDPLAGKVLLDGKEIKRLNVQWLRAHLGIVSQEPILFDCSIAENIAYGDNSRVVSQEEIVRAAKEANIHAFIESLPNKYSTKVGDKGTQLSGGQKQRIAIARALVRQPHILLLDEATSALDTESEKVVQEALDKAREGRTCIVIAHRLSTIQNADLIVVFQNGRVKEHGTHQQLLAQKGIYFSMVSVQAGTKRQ

Structure (SMILES)	IC50 [1] [µM]	Ki [1] [µM]	Uptake of [14C] erythromycin higher by ([1]; MDCK-MRP2 cells, 100 μM MK571, 30 min) [%]	IC50 [2] [µM]	Ki [2] [µM]	Effect on efflux ratio of [14C] erythromycin ([3]; MDCK-MRP2 monolayers, increasing concentrations of gatifloxacin)	Effect on Hoechst 33342 uptake [4]	ATP activity of treated cells compared to vehicle control [5]	Effect on efflux ratio of [14C] erythromycin ([6]; increasing concentrations of gatifloxacin)	Minimum inhibitory concentration (MIC) ([7]; against many bacterial species, introduction, no reference given) [µg/mL]	Activity relative to the other quinolones ([7]; ref Ba et al. 2006)	Involvement of P-gp in the translocation of gatifloxacin [8]	efflux ratio at 3 h ([3]; human, pH 7.4)	efflux ratio at 3 h [9]	Papp of [14C] erythromycin in B-A direction relative to AP-BL direction ([6]; erythromycin alone)	efflux ratio at 3 h [10]
CN(C)C(=O)CCSC(SCCC(=O)O)c1cccc(/C=C/c2ccc3ccc(Cl)cc3n2)c1 (stereo not drawn) [MK571]	188 ± 28.2	175 ± 18.2	177	–	–	–	–	–	–	–	–	–	–	–	–	–
COc1c(N2CCNC(C)C2)c(F)cc2c(=O)c(C(=O)O)cn(C3CC3)c12 (stereo not drawn) [gatifloxacin]	5230 ± 390	5370 ± 218	–	359 ± 90.1	385 ± 88.6	continuously became lower and approached unity	not found to be significantly different	No significant difference	progressively decrease and approach unity	0.1 (≈ 0.266 µM)	two- to fourfold more active	did not find any significant involvement	–	–	–	–
CC[C@H]1OC(=O)[C@H](C)[C@@H](O[C@H]2C[C@@](C)(OC)[C@@H](O)[C@H](C)O2)[C@H](C)[C@@H](O[C@@H]2O[C@H](C)C[C@H](N(C)C)[C@H]2O)[C@](C)(O)C[C@@H](C)C(=O)[C@H](C)[C@@H](O)[C@]1(C)O [[^14C] erythromycin, erythromycin]	–	–	–	–	–	–	–	–	–	–	–	–	5.3	> 7	more than fivefold higher	7.2
